What was measured:
[1] = analgesic activity, phenylquinone test in mice via subcutaneous route; assay type: in vivo; settings: for ED50: Mus musculus, sc, mice, subcutaneous, phenylquinone test; for analgesic activity, in words: comparison of enantiomers and racemate
Procedure: Thirty animals were treated with each product.

[2] = tested on: alpha 1 adrenergic receptors; test: affinity for alpha 1 adrenergic receptors, receptor binding test; settings: for interference with the adrenergic receptor, in words: comparison with racemate; for IC50: receptor binding
From the text: (§1) Since an interference with the adrenergic system is an index of undesirable effects, both the capability of binding to alpha 1 adrenergic receptors, as IC50 (Table 2), and the alphalytic activity (Table 3) of the same compounds have been evaluated.
As far as the receptor binding test is concerned, reference is made to "Molecular Pharmacology", 20, 295-301, (1981).

[3] = target: T1, deferent of rat (Rattus norvegicus); test: alphalytic activity on an isolated organ (deferent of rat); settings: isolated deferent of rat; read-out: Alphalytic activity pA2 (converted)
T1 construct: evaluated on an isolated organ (deferent of rat); from tissue; host or cells: isolated vas deferens of rat
Procedure: as §1
(§2) In turn, the alphalytic activity was evaluated on an isolated organ (deferent of rat) according to the technique described in "Clinical and Experimental Pharmacology & Physiology", 6, 275-279, (1979).

deferent of rat = target: T2, deferent of rat (Rattus norvegicus, UniProt P43140); test: as above; settings: comparison of enantiomers and racemate
T2 construct: evaluated on an isolated organ (deferent of rat); from tissue; host or cells: isolated vas deferens of rat
T2 sequence (P43140 1-466): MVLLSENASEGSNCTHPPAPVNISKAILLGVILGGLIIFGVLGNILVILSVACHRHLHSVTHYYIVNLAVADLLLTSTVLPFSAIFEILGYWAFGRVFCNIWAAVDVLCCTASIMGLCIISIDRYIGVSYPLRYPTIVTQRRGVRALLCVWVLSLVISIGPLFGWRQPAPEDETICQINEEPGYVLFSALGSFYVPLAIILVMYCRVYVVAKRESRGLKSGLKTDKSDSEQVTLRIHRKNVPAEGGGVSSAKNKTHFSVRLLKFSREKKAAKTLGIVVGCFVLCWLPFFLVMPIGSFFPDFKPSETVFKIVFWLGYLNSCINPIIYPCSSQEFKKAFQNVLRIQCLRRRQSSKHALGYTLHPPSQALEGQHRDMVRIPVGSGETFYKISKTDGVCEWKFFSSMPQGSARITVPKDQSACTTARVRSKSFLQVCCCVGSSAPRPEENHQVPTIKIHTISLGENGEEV
Procedure: as §1, §2

| Structure (SMILES) | ED50 [1] | analgesic activity, in words [1] | interference with the adrenergic receptor, in words [2] | IC50 [2] | Kb [3] | alphalytic activity, in words (deferent of rat) | alphalytic activity, in words (deferent of rat; listed as (S) enantiomer) |
| --- | --- | --- | --- | --- | --- | --- | --- |
| C[C@H]1CN(c2cccc(Cl)c2)CCN1CCCn1nc2ccccn2c1=O [(S), (S)-2-[3-[4-(3-chlorophenyl)-1-(2-methyl)-piperazinyl]-propyl]-1,2,4-triazol[4,3-a]-pyridine-3(2H)-one] | 7.8 mg/kg | more active than (R) enantiomer | lower than those of racemate | 0.981 µM | 3.98 µM | lower than those of racemate | lower than that of (R) enantiomer |
| C[C@@H]1CN(c2cccc(Cl)c2)CCN1CCCn1nc2ccccn2c1=O [(R), (R)-2-[3-[4-(3-chlorophenyl)-1-(2-methyl)-piperazinyl]-propyl]-1,2,4-triazol[4,3-a]-pyridine-3(2H)-one] | 9.02 mg/kg |  | lower than those of racemate | 0.533 µM | 0.178 µM | lower than those of racemate |  |
| CC1CN(c2cccc(Cl)c2)CCN1CCCn1nc2ccccn2c1=O (racemic) [Racemate, reference compound] | > 12.5 mg/kg | less analgesic activity compared to the single enantiomers |  | 0.471 µM | 0.02 µM |  |  |

From patent publication US5817815A, “Pharmacologically active enantiomers” (Angelini Ricerche S.p.A. Societa Consortile, priority 1993, dated 1998)
